From US5116941A, “Peptide substrates for determination of enzyme activity” (Nitto Boseki Co., Ltd., priority 1988, dated 1992)
Structures can show the parent of a compound that is named as a salt. Where a SMILES comes first, the peptide text is derived from it.

Legend:
[1] = molecular target: T1, Plasmin (Homo sapiens, UniProt P00747); assay: Substrate specificity: enzyme reaction with plasmin, colorimetric; type: biochemical; design: purchased Green Cross Company Lot PL-35; conditions: for absorbance (O.D.) measured, PL: So = 0.4 mmol, 37° C., 5 minutes, pH 7.8
Experimental: (§1) Specificity of each of the new substrates synthesized in Examples 1 through 4 was examined by reacting with each enzyme. Details of reagents used are as described below.
(§2) (2) Buffer: concentration of Tris, NaCl and CaCl2 and pH (25° C.) were set as shown below, depending upon enzyme. […]
(§3) Enzyme used and its source, etc. are as follows. […]
Plasmin Human Green Cross PL-35 0.25 CU/ml
(§4) (4) Terminate solution (PNA): 10% acetic acid
(§5) (5) Color forming reagent (CHA): pentacyanoamineferroate
(§6) Buffer, 0.5 ml and 0.1 ml of substrate solution are charged in a silicone-treated hard glass test tube or plastic test tube. The mixture is previously heated for 10 minutes in a thermostat at 37° C. Then, 0.1 ml of enzyme solution is added to the mixture to perform enzyme reaction at 37° C. for 5 minutes. Accurately 5 minutes after, 2.0 ml of the terminate solution is added to stop the enzyme reaction. Then the reaction mixture is allowed to stand at 37° C. for 10 minutes and its absorbance is measured at 405 nm or 700 nm.
Target sequence in this assay (P00747 581-810 limits assumed): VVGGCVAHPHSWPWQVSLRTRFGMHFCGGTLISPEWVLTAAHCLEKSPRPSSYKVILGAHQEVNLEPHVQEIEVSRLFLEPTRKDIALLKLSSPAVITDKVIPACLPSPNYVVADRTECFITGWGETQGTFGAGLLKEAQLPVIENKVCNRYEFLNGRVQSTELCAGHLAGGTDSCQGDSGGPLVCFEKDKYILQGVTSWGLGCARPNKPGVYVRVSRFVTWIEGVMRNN
Target sequence in this assay (P00747 97-580 partner limits assumed): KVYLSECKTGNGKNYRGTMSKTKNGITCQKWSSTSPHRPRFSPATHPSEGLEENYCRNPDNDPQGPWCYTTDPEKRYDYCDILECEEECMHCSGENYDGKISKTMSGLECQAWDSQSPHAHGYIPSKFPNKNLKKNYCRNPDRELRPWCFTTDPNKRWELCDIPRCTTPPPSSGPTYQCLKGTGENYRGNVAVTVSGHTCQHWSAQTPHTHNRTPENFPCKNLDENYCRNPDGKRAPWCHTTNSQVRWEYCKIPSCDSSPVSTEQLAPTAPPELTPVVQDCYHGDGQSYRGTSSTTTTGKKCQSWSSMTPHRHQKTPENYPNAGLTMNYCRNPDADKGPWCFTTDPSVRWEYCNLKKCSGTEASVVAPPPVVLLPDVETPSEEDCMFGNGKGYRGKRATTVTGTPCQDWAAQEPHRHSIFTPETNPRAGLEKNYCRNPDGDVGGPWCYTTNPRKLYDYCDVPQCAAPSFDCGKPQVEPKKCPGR

[2] = test system: Kallikrein; assay: Substrate specificity: enzyme reaction with kallikrein, colorimetric; type: biochemical, Swine; conditions: So = 0.4 mmol, 37° C., 5 minutes, pH 7.8
Experimental: as §1, §2, §3, §4, §5, §6

[3] = molecular target: T2, Factor Xa (Bos taurus, UniProt P00743); assay: Substrate specificity: enzyme reaction with factor Xa, colorimetric; type: biochemical, Bovine; conditions: for absorbance (O.D.) measured, FXa: So = 0.4 mmol, 37° C., 5 minutes, pH 8.3
T2 construct: purchased Sigma Inc. Lot 73F-9450
Experimental: as §1, §2, §3, §4, §5, §6

[4] = molecular target: T3, Trypsin (Bos taurus, UniProt P00760); assay: Substrate specificity: enzyme reaction with trypsin, colorimetric; type: biochemical, Bovine; conditions: for absorbance (O.D.) measured, Try: So = 0.4 mmol, 37° C., 5 minutes, pH 8.0
T3 construct: purchased Wersinton (so in the source)
T3 sequence (P00760 24-246): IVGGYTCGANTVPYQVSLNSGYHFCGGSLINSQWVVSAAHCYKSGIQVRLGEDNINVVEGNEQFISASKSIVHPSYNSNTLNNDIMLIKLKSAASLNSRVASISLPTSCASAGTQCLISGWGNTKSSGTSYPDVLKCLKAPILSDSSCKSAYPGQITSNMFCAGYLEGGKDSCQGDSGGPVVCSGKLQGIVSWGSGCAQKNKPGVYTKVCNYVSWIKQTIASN
Experimental: as §1, §2, §3
Trypsin Bovine Wersinton 31M771 10 μg/ml
as §4, §5, §6

[5] = molecular target: T4, Thrombin (Bos taurus, UniProt P00735); assay: Substrate specificity: enzyme reaction with thrombin, colorimetric; type: biochemical, Bovine; conditions: for absorbance (O.D.) measured, TH: So = 0.4 mmol, 37° C., 5 minutes, pH 8.5
T4 construct: purchased Mochida Pharmaceutical Company Lot 65146
Experimental: as §1, §2, §3, §4, §5, §6

[6] = molecular target: factor Xa (Homo sapiens, UniProt P00742); conditions: it is known; cited from earlier work
[7] = molecular target: T1, Plasmin; conditions: it is known; cited from earlier work
Target sequence in this assay (P00747 581-810 limits assumed, species assumed): as the sequence (P00747 581-810 limits assumed) above
Target sequence in this assay (P00747 97-580 partner limits assumed, species assumed): as the sequence (P00747 97-580 partner limits assumed) above

[8] = molecular target: thrombin (Homo sapiens, UniProt P00734); conditions: it is known; cited from earlier work
[9] = 700 nm, pentacyanoamineferroate
[10] = CHR-TRY is made 100, So=0.4 mmol

T2 sequence (P00743 234-492 limits assumed): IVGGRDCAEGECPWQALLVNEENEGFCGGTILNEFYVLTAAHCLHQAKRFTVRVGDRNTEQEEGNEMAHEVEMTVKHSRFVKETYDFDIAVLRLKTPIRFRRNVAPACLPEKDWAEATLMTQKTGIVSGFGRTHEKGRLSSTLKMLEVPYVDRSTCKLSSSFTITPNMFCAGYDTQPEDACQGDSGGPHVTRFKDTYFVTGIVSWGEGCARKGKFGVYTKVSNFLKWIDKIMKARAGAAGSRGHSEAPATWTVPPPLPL
T2 sequence (P00743 41-180 partner limits assumed): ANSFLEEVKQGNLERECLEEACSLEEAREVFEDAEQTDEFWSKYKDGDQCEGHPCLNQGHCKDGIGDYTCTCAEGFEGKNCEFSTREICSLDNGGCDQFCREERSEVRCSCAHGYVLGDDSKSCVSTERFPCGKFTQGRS
Sequence of factor Xa (P00742 235-488 limits assumed): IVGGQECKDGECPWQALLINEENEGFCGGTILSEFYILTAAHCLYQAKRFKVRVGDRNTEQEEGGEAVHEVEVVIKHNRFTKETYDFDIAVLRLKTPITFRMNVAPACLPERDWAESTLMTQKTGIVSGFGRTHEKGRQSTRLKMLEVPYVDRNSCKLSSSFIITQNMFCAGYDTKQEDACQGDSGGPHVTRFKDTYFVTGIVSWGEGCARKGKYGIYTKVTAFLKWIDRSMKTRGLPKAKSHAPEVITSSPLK
Sequence of factor Xa (P00742 41-179 partner limits assumed): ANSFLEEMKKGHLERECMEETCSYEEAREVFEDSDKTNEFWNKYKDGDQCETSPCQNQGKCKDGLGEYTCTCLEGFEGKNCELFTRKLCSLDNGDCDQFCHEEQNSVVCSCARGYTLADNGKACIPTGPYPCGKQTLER

Row | absorbance (O.D.) measured, PL [1, 9] [O.D.] | absorbance (O.D.) measured, KL [2, 9] [O.D.] | absorbance (O.D.) measured, FXa [3, 9] [O.D.] | absorbance (O.D.) measured, Try [4, 9] [O.D.] | absorbance (O.D.) measured, TH [5, 9] [O.D.] | Molecule | also measured
1 | 0.007 | 0.002 | 0.007 | 0.434 | 0.002 | CC(C)[C@H](NC(=O)[C@@H]1CCC(=O)N1)C(=O)N[C@@H](CCCNC(=N)N)C(=O)Nc1ccc(O)c(C(=O)O)c1 [PS-1293, H--PyroGlu--Val--Arg--CHA.HCl] | –
2 | 0.004 | 0.003 | 0.004 | 0.401 | 0.002 | N=C(N)NCCC[C@H](NC(=O)CNC(=O)[C@H](N)CCC(=O)O)C(=O)Nc1ccc(O)c(C(=O)O)c1 [PS-1298, H--D--Glu--Gly--Arg--CHA.2HCl] | –
3 | 0.005 | 0.005 | 0.008 | 0.676 | 0.006 | C[C@H](NC(=O)[C@@H]1CCC(=O)N1)C(=O)N[C@@H](CCCNC(=N)N)C(=O)Nc1ccc(O)c(C(=O)O)c1 [PS-1245, H-PyroGlu-Ala-Arg-CHA] | reactivity with plasmin relative to CHR-TRY ([1]; CHR-TRY is made 100): 36%; Relative Reactivity of Substrate to Each Enzyme, PL [1, 10]: 36; reactivity with factor Xa relative to CHR-TRY ([3]; CHR-TRY is made 100): 19%; Relative Reactivity of Substrate to Each Enzyme, FXa [3, 10]: 9; reactivity with trypsin relative to CHR-TRY ([4]; CHR-TRY is made 100): 278%; Relative Reactivity of Substrate to Each Enzyme, Try [4, 10]: 278; reactivity with thrombin relative to CHR-TRY ([5]; CHR-TRY is made 100): 12%; Relative Reactivity of Substrate to Each Enzyme, TH [5, 10]: 12
4 | 0.004 | 0.002 | 0.007 | 0.556 | 0.012 | H--D--PyroGlu--Pro--Arg--CHA.HCl [PS-1291] | –
5 | 0.005 | 0.002 | 0.007 | 0.814 | 0.021 | N=C(N)NCCC[C@H](NC(=O)[C@@H]1CCCCN1C(=O)[C@@H]1CCC(=O)N1)C(=O)Nc1ccc(O)c(C(=O)O)c1 [PS-1292] | –
6 | 0.013 | 0.004 | 0.008 | 0.570 | 0.022 | N=C(N)NCCC[C@H](NC(=O)[C@@H]1CCCN1C(=O)[C@@H]1CCC(=O)N1)C(=O)Nc1ccc(O)c(C(=O)O)c1 [PS-1242, H--PyroGlu--Pro--Arg--CHA] | –
7 | – | – | – | – | – | CC(C)[C@H](NC(=O)OCc1ccccc1)C(=O)NCC(=O)N[C@@H](CCCNC(=N)N)C(=O)Nc1ccc([N+](=O)[O-])cc1 [CHR-TRY, Benzyloxy-carbonyl-Val-Gly-Arg-p-Nitroanilide, reference compound] (HELM PEPTIDE1{[O=C(OCc1ccccc1)[*:2]].V.G.R.[O=[N+]([O-])c1ccc(N[*:1])cc1]}$$$$V2.0) | reaction with factor Xa [6]: considerably reacts; absorbance (O.D.) measured, PL ([1]; 405 nm (PNA substrate)): 0.014 O.D.; absorbance (O.D.) measured, KL ([2]; 405 nm (PNA substrate)): 0.008 O.D.; reaction with plasmin [7]: considerably reacts; reaction with thrombin [8]: considerably reacts; absorbance (O.D.) measured, FXa ([3]; 405 nm (PNA substrate)): 0.090 O.D.; absorbance (O.D.) measured, Try ([4]; 405 nm (PNA substrate)): 0.243 O.D.; absorbance (O.D.) measured, TH ([5]; 405 nm (PNA substrate)): 0.050 O.D.
8 | 0.000 | 0.002 | 0.007 | 0.403 | 0.005 | H--D--PyroGlu--Ala--Arg--CHA.HCl [PS-1290] | –
9 | 0.008 | 0.006 | 0.008 | 0.637 | 0.002 | CCC[C@H](NC(=O)[C@@H]1CCC(=O)N1)C(=O)N[C@@H](CCCNC(=N)N)C(=O)Nc1ccc(O)c(C(=O)O)c1 [PS-1295, H--PyroGlu--NVal--Arg--CHA.HCl] | –
10 | 0.010 | 0.006 | 0.008 | 0.656 | 0.002 | CCCC[C@H](NC(=O)[C@@H]1CCC(=O)N1)C(=O)N[C@@H](CCCNC(=N)N)C(=O)Nc1ccc(O)c(C(=O)O)c1 [PS-1296, H--PyroGlu--NLeu--Arg--CHA.HCl] | –
11 | 0.008 | 0.003 | 0.010 | 0.588 | 0.003 | CC[C@H](NC(=O)[C@@H]1CCC(=O)N1)C(=O)N[C@@H](CCCNC(=N)N)C(=O)Nc1ccc(O)c(C(=O)O)c1 [PS-1294, H--PyroGlu--But--Arg--CHA.HCl] | –
